{"source": "patent US12168026B2", "about": "“Methods and compositions for wound healing” (priority 2018, dated 2024)", "key": {"[1]": {"test_system": "NIH 3T3 mouse fibroblast cells", "description": "The mouse fibroblast cell line NIH-3T3, obtained from ATCC (Manassas, VA) was used for all in vitro cell-based experiments. Cell cultures were maintained at 37° C. and were fed with DMEM growth medium supplemented with 10% calf bovine serum (CBS), 2×10^−[…] (Invitrogen, Carlsbad, CA), and 1% Penicillin Streptomycin. Cells were seeded with 1.0×10^4 cells/well of the 96-well plate and were allowed to attach on the bottom of wells for 24 h. After incubation, cells were washed with […] Phosphate Buffer Saline (PBS); pH 7.4). […] Cells treated with 1% Triton X-100 (Sigma Aldrich, St Louis, MO) were used as controls for complete cell death. For the evaluation of cytotoxicity, the CellTiter 96 AQueous non-radioactive assay (Promega, Germany) was performed. This assay measures the conversion (reduction) of a weakly colored tetrazolium salt of MTS (3-{4,5-dimethylthiazol-2-yl}-5-{3-carboxymethoxyphenyl}-2-{4-sulfophenyl}-2H-tetrazolium) to brightly colored formazan by mitochondrial dehydrogenase of metabolically active (live) cells. The amount of formazan formed varies proportionally with the number of live cells. The wells were rinsed with PBS to remove non-adherent cells and then incubated in a serum-free medium containing 20% MTS reagent for 3 h at 37° C. Then, the absorbance was read in a spectrophotometric plate reader at 490 nm (BioTek Instruments, Winooski, VT).\nBriefly, fibroblasts were allowed to attach on the bottom of 96-well plates (within 24-h incubation). […] Following incubation, the viability of the cells was determined by measuring cellular mitochondrial dehydrogenase activity (see Materials and Methods for details)."}, "[2]": {"test_system": "P. aeruginosa (ATCC 27853)", "conditions": "Ag+ 0.4 μg mL^−1; cited from earlier work"}, "[3]": {"test_system": "P. aeruginosa (ATCC 27853)", "assay": "Antibacterial activity of solutions of Bp, Ag+ or their mixture (viable counts after 24-h incubation)", "assay_type": "cell-based", "conditions": "for CFU decrease of P. aeruginosa: 10^7 CFU in 500 μL HBSS", "description": "Viable bacterial counts remaining in suspension following the 24-h incubation were determined by dilution and plating."}, "[4]": {"conditions": "Bp 2.5 mg mL^−1; cited from earlier work"}, "[5]": {"test_system": "rats wounds", "conditions": "5 mg mL^−1 at local incisions of rats wounds; cited from earlier work"}}, "note": "Where a name gives a salt, the structure may show the parent alone.", "data": [{"smiles": "O=[N+]([O-])[O-].[Ag+]", "note": "[Ag^+, Silver nitrate]", "values": [{"measurement": "toxicity toward fibroblasts", "setting": "[1]; Ag+ 0.4 μg mL^−1 and up to 1.2 μg mL^−1, 24 h", "value": "not to cause significant toxicity"}, {"measurement": "effect on viability of mammalian cells such as fibroblasts", "setting": "[1]; Ag+ 1.7 μg mL^−1 and Bp 0.25 mg mL^−1", "value": "do not significantly reduce the viability"}, {"measurement": "CFU decrease of P. aeruginosa (reported)", "setting": "[2]", "value": 6, "unit": "log10 CFU"}, {"measurement": "CFU decrease of P. aeruginosa", "setting": "[3]; Ag+ 0.3 μg mL^−1, 24 h", "value": 3, "unit": "log10 CFU"}, {"measurement": "CFU decrease of P. aeruginosa", "setting": "[3]; Ag+ 0.4 μg mL^−1, 24 h", "value": 6, "unit": "log10 CFU"}]}, {"smiles": "CCCCN1CCCCC1C(=O)Nc1c(C)cccc1C", "note": "(stereo not shown) [Bp, bupivacaine hydrochloride monohydrate]", "values": [{"measurement": "antimicrobial activity (reported)", "setting": "[4]", "value": "exhibit antimicrobial activity"}, {"measurement": "collagen production", "setting": "[5]", "value": "decrease collagen production"}, {"measurement": "inflammation", "setting": "[5]", "value": "significant inflammation"}, {"measurement": "cytotoxicity limit (concentration of agent that caused a ~50% decrease in viability of cells)", "setting": "[1]; mouse, 24 h, pH 7.4", "value": 1.2, "unit": "µg/mL"}, {"measurement": "antimicrobial activity", "setting": "[3]; Bp 0.5 mg mL^−1, 24 h", "value": "does not exhibit antimicrobial activity"}]}]}
